Source: patent US20230167467A1, “METHODS AND COMPOSITIONS FOR THE PRODUCTION OF ISOBUTENE” (University of Alaska Anchorage, priority 2020, published 2023)

System: Engineered strains of E. coli
Assay type: cell-based
Details: for change in expression of gene adiA / change in expression of gene adiC / change in expression of gene adiY / change in expression of gene bhsA / change in expression of gene bssR / change in expression of gene bssS / change in expression of gene clpA / change in expression of gene clpB / change in expression of gene clpP / change in expression of gene coaA / change in expression of gene coaD / change in expression of gene cspA / change in expression of gene cspB / change in expression of gene cspC / change in expression of gene cspD / change in expression of gene cspE / change in expression of gene cspF / change in expression of gene dhaK / change in expression of gene dhaL / change in expression of gene dnaJ / change in expression of gene dnaK / change in expression of gene fabA / change in expression of gene fabB / change in expression of gene fabD / change in expression of gene flgA / change in expression of gene flgB / change in expression of gene flgC / change in expression of gene flgD / change in expression of gene flgE / change in expression of gene flgF / change in expression of gene flgG / change in expression of gene flgH / change in expression of gene gabD / change in expression of gene gabP / change in expression of gene gabT / change in expression of gene gadA / change in expression of gene gadB / change in expression of gene gadC / change in expression of gene gadE / change in expression of gene gadW / change in expression of gene gadX / change in expression of gene gadY / change in expression of gene glpA / change in expression of gene glpB / change in expression of gene glpC / change in expression of gene groL / change in expression of gene groS / change in expression of gene hchA / change in expression of gene hslJ / change in expression of gene hslO / change in expression of gene hslR / change in expression of gene hslU / change in expression of gene hslV / change in expression of gene ibpA / change in expression of gene ibpB / change in expression of gene lhgO / change in expression of gene lipA / change in expression of gene lipB / change in expression of gene narG / change in expression of gene narH / change in expression of gene narI / change in expression of gene narJ / change in expression of gene narK / change in expression of gene potA / change in expression of gene potB / change in expression of gene potC / change in expression of gene pspA / change in expression of gene pspB / change in expression of gene rpoA / change in expression of gene rpoB / change in expression of gene rpoC / change in expression of gene rpoD / change in expression of gene rpoE / change in expression of gene rpoH / change in expression of gene rpoN / change in expression of gene rpoS / change in expression of gene rpoZ / change in expression of gene spy / change in expression of gene tatA / change in expression of gene tatB / change in expression of gene tatC / change in expression of gene tatD / change in expression of gene tatE: after solvent exposure, vs positive control; for number of genes with significant changes in expression: vs control, Bon Ferroni corrected p-value<0.05

C=CC(C)CC (stereo not drawn) [3-methyl-1-pentene]
expression of acid resistance genes (gad, adi families): downregulated
expression of chaperone proteins groLS, spy, and dnaJK: highly upregulated
expression of dihydroxyacetone kinase genes dhaKLM: upregulated
expression of galactitol metabolism genes gatABD: upregulated
expression of heat shock proteins and chaperones hslJORUV: increased
expression of ibpAB and clpAB (protein protection and repair): increased
expression of marABC (multiple antibiotic resistance): upregulated
expression of nitrate reductase genes narGHJKP: upregulated
expression of phage shock genes pspABCDE: highly upregulated
change in expression of gene adiA: −3.34 ± 0.90
change in expression of gene adiC: −4.45 ± 1.13
change in expression of gene adiY: −4.27 ± 0.72
change in expression of gene bhsA: 4.75 ± 0.60
change in expression of gene bssR: −0.03 ± 0.44
change in expression of gene bssS: 5.81 ± 0.84
change in expression of gene clpA: 3.44 ± 0.63
change in expression of gene clpB: 6.13 ± 0.69
change in expression of gene clpP: 2.17 ± 0.59
change in expression of gene coaA: −1.75 ± 0.90
change in expression of gene coaD: 0.47 ± 0.93
change in expression of gene cspA: −4.30 ± 0.58
change in expression of gene cspB: −3.27 ± 1.33
change in expression of gene cspC: −1.52 ± 0.93
change in expression of gene cspD: 3.11 ± 0.58
change in expression of gene cspE: 0.28 ± 0.63
change in expression of gene cspF: −2.49 ± 1.08
change in expression of gene dhaK: 3.88 ± 0.59
change in expression of gene dhaL: 3.17 ± 0.63
change in expression of gene dnaJ: 6.43 ± 0.69
change in expression of gene dnaK: 4.74 ± 0.66
change in expression of gene fabA: −0.23 ± 0.77
change in expression of gene fabB: 2.75 ± 0.66
change in expression of gene fabD: −0.87 ± 0.53
change in expression of gene flgA: −2.55 ± 1.64
change in expression of gene flgB: −5.95 ± 1.74
change in expression of gene flgC: −5.29 ± 2.06
change in expression of gene flgD: −5.38 ± 2.00
change in expression of gene flgE: −4.38 ± 1.24
change in expression of gene flgF: −3.45 ± 1.66
change in expression of gene flgG: −4.32 ± 1.57
change in expression of gene flgH: −3.08 ± 1.80
change in expression of gene gabD: −0.39 ± 1.37
change in expression of gene gabP: −0.55 ± 1.33
change in expression of gene gabT: −0.74 ± 1.35
change in expression of gene gadA: −3.97 ± 0.90
change in expression of gene gadB: −2.34 ± 0.85
change in expression of gene gadC: −1.88 ± 0.83
change in expression of gene gadE: −5.01 ± 0.68
change in expression of gene gadW: −5.73 ± 1.17
change in expression of gene gadX: −2.89 ± 0.58
change in expression of gene gadY: −4.81 ± 0.90
change in expression of gene glpA: 7.04 ± 0.87
change in expression of gene glpB: 4.86 ± 0.63
change in expression of gene glpC: 5.64 ± 0.80
change in expression of gene groL: 4.37 ± 0.57
change in expression of gene groS: 4.22 ± 0.50
change in expression of gene hchA: 2.03 ± 0.62
change in expression of gene hslJ: 1.02 ± 0.67
change in expression of gene hslO: 3.42 ± 0.64
change in expression of gene hslR: 3.19 ± 0.66
change in expression of gene hslU: 3.91 ± 0.56
change in expression of gene hslV: 3.66 ± 0.61
change in expression of gene ibpA: 9.84 ± 1.21
change in expression of gene ibpB: 11.65 ± 1.50
change in expression of gene lhgO: −1.08 ± 1.80
change in expression of gene lipA: 0.62 ± 0.61
change in expression of gene lipB: 1.26 ± 0.64
change in expression of gene narG: 0.67 ± 0.66
change in expression of gene narH: −0.40 ± 0.65
change in expression of gene narI: −2.41 ± 1.20
change in expression of gene narJ: −0.67 ± 0.73
change in expression of gene narK: 0.15 ± 0.90
change in expression of gene potA: −2.42 ± 0.82
change in expression of gene potB: −1.56 ± 1.33
change in expression of gene potC: −0.61 ± 1.22
change in expression of gene pspA: 10.50 ± 0.55
change in expression of gene pspB: 8.15 ± 0.68
change in expression of gene rpoA: 0.25 ± 0.44
change in expression of gene rpoB: 0.39 ± 0.40
change in expression of gene rpoC: 0.99 ± 0.39
change in expression of gene rpoD: 3.68 ± 0.70
change in expression of gene rpoE: −2.04 ± 0.63
change in expression of gene rpoH: 0.68 ± 0.52
change in expression of gene rpoN: −1.52 ± 0.50
change in expression of gene rpoS: −0.17 ± 0.48
change in expression of gene rpoZ: −1.17 ± 0.55
change in expression of gene spy: 3.35 ± 0.88
change in expression of gene tatA: −1.50 ± 0.52
change in expression of gene tatB: −1.06 ± 0.60
change in expression of gene tatC: −1.33 ± 1.12
change in expression of gene tatD: −2.62 ± 1.19
change in expression of gene tatE: −0.18 ± 0.65
number of genes with significant changes in expression: 540 genes

C1=CCCCC1 [cyclohexene]
expression of acid resistance genes (gad, adi families): downregulated
expression of chaperone proteins groLS, spy, and dnaJK: highly upregulated
expression of dihydroxyacetone kinase genes dhaKLM: upregulated
expression of galactitol metabolism genes gatABD: upregulated
expression of heat shock proteins and chaperones hslJORUV: increased
expression of ibpAB and clpAB (protein protection and repair): increased
expression of marABC (multiple antibiotic resistance): upregulated
expression of nitrate reductase genes narGHJKP: upregulated
expression of phage shock genes pspABCDE: highly upregulated
change in expression of gene adiA: −1.87 ± 0.86
change in expression of gene adiC: −1.64 ± 1.02
change in expression of gene adiY: −2.84 ± 0.66
change in expression of gene bhsA: 4.18 ± 0.60
change in expression of gene bssR: 2.27 ± 0.44
change in expression of gene bssS: 6.69 ± 0.84
change in expression of gene clpA: 4.12 ± 0.63
change in expression of gene clpB: 6.17 ± 0.69
change in expression of gene clpP: 2.72 ± .59
change in expression of gene coaA: −1.36 ± 0.88
change in expression of gene coaD: 1.34 ± 0.90
change in expression of gene cspA: −6.07 ± 0.58
change in expression of gene cspB: −4.10 ± 1.31
change in expression of gene cspC: −3.65 ± 0.94
change in expression of gene cspD: 2.88 ± 0.57
change in expression of gene cspE: −0.06 ± 0.63
change in expression of gene cspF: −2.37 ± 1.04
change in expression of gene dhaK: 3.72 ± 0.59
change in expression of gene dhaL: 2.40 ± 0.62
change in expression of gene dnaJ: 6.64 ± 0.69
change in expression of gene dnaK: 5.96 ± 0.66
change in expression of gene fabA: −1.13 ± 0.76
change in expression of gene fabB: 1.01 ± 0.66
change in expression of gene fabD: −1.64 ± 0.53
change in expression of gene flgA: −0.73 ± 1.53
change in expression of gene flgB: −3.31 ± 1.51
change in expression of gene flgC: −4.46 ± 1.94
change in expression of gene flgD: −3.72 ± 1.87
change in expression of gene flgE: −2.82 ± 1.18
change in expression of gene flgF: −2.88 ± 1.58
change in expression of gene flgG: −2.77 ± 1.48
change in expression of gene flgH: −2.14 ± 1.71
change in expression of gene gabD: 0.11 ± 1.32
change in expression of gene gabP: 1.19 ± 1.28
change in expression of gene gabT: 0.31 ± 1.28
change in expression of gene gadA: −0.52 ± 0.68
change in expression of gene gadB: 0.17 ± 0.80
change in expression of gene gadC: 1.28 ± 0.80
change in expression of gene gadE: −3.51 ± 0.61
change in expression of gene gadW: −2.17 ± 0.95
change in expression of gene gadX: −3.69 ± 0.57
change in expression of gene gadY: −4.01 ± 0.80
change in expression of gene glpA: 7.06 ± 0.87
change in expression of gene glpB: 4.64 ± 0.63
change in expression of gene glpC: 5.02 ± 0.80
change in expression of gene groL: 4.57 ± 0.57
change in expression of gene groS: 4.63 ± 0.50
change in expression of gene hchA: 2.06 ± 0.60
change in expression of gene hslJ: 1.41 ± 0.66
change in expression of gene hslO: 4.56 ± 0.64
change in expression of gene hslR: 4.80 ± 0.65
change in expression of gene hslU: 4.95 ± 0.55
change in expression of gene hslV: 4.81 ± 0.61
change in expression of gene ibpA: 9.90 ± 1.21
change in expression of gene ibpB: 10.95 ± 1.50
change in expression of gene lhgO: 1.38 ± 1.64
change in expression of gene lipA: 0.42 ± 0.73
change in expression of gene lipB: 0.61 ± 1.03
change in expression of gene narG: 4.96 ± 0.65
change in expression of gene narH: 4.45 ± 0.61
change in expression of gene narI: 3.11 ± 0.92
change in expression of gene narJ: 4.11 ± 0.68
change in expression of gene narK: 3.31 ± 0.84
change in expression of gene potA: −2.79 ± 0.81
change in expression of gene potB: −1.05 ± 1.29
change in expression of gene potC: −0.55 ± 1.19
change in expression of gene pspA: 10.50 ± 0.55
change in expression of gene pspB: 9.33 ± 0.68
change in expression of gene rpoA: 0.17 ± 0.44
change in expression of gene rpoB: 0.79 ± 0.40
change in expression of gene rpoC: 1.15 ± 0.39
change in expression of gene rpoD: 4.75 ± 0.70
change in expression of gene rpoE: 1.44 ± 0.62
change in expression of gene rpoH: 1.79 ± 0.52
change in expression of gene rpoN: −1.54 ± 0.49
change in expression of gene rpoS: 0.22 ± 0.47
change in expression of gene rpoZ: −0.02 ± 0.53
change in expression of gene spy: 3.95 ± 0.87
change in expression of gene tatA: −1.95 ± 0.52
change in expression of gene tatB: −1.59 ± 0.59
change in expression of gene tatC: −1.25 ± 1.09
change in expression of gene tatD: −1.56 ± 1.13
change in expression of gene tatE: −0.97 ± 0.64
number of genes with significant changes in expression: 530 genes
